We go through two compounds from US11946027B2, “Systems and methods for monitoring behavior of cells and/or tissues in culturing media” (Purdue Research Foundation, priority 2019, dated 2024).

Data set [1] concerns MCF7 cells. The experiment in a line: Impedimetric cytotoxicity of MCF7 cells on the scaffold system with Dox. In kind it is cell-based. Particulars: 30 kHz. The method, then:
The scaffold system remained afloat on the medium, wherein the recording electrodes were entirely surrounded with polyimide elastomers. The flexible conductors were ACF cables (HST-9805-210, Elform, Inc., USA) placed on the sponge-like PDMS buoyant member and wired to an external data acquisition system (E4980AL Precision LCR meter, Keysight Technologies, USA) through the air. […] From about 16 hours later, drastic increase of the impedance occurred due to the cell aggregation and continuous proliferation. This tendency was more obvious in the MCF7 cells because the population doubling time of MCF7 cells (about 29 hours) is shorter than that of SKOV3 cells (about 48 hours) and HUVEC cells (about 60 hours). Consistently, the impedance of the MCF7 cells increased proportionally to the cellular density (FIG. 3C).
(§1) The impedance was measured by using an LCR meter (Agilent 4294A, USA) with the voltage (between two adjacent recording electrodes) of about 1 mV for 48 hours at the frequencies of 1, 5, 10, 20, 30, 50, 100, 150, 200 and 250 kHz. The scaffold system was placed in the incubator (5% CO^2, 37° C.; Thermo Scientific, USA) and wired to the LCR meter located outside of the incubator via flexible ACF cables. The data was collected every 2 hours from the scaffold system.

The test system of data set [2] is MCF7 cells. The experiment in a line: Real-time impedance monitoring in three-layer stacked scaffold seeded with MCF7 cells, Dox introduced on the top. In kind it is cell-based. Particulars: 1 mM Dox introduced on the top at 1-day incubation. The protocol: In this configuration, each layer of the scaffold system remains spaced apart a fixed distance of about 5 mm along the perimeter by using spacers made of PDMS.
as §1

For data set [3] the following is noted: hydrophilic and water-soluble; Doxorubicin Hydrochloride, Fisher; cited from earlier work.
Data set [4] relates to cardiomyocytes. Briefly: ECG recording of cardiomyocytes on the scaffold in response to norepinephrine. In kind it is cell-based, neonatal mice. Particulars: cardiomyocytes at day 8. An excerpt: The beating rate decreased from 288 bpm to 60 bpm and to 36 bpm, whereas the amplitude increased from 66 μV to 83 μV and to 511 μV at day 2, 6, and 8, respectively. The results imply that spontaneous contractions of the individual cells initially occurred, followed by stronger and more synchronized contractions as the cells become more in contact each other. […] A representative microscopy image in FIG. 4C highlights the embedded four-channel-multiplexed sensing electrodes with the cardiomyocytes at day 8 within the domain of 1.4×1.4 mm^2. The results in FIG. 4D indicate the synchronized beating rate (about 0.63 Hz), amplitude (638˜763 μV), and peak width (˜about 0.6 sec). 3D mapping results of the action potentials (FIG. 4E) obtained from the total 48 ECG sensors (4×4 array in each layer) reveal the spontaneous beating activities of the cardiomyocytes at day 2, 6, and 8 without showing any toxic effect.
For cardiomyocyte isolation, primary neonatal mice cardiomyocytes were prepared according to the Pierce Primary Cardiomyocyte Isolation Kit (Thermo Scientific, USA). Briefly, neonatal hearts were isolated from about 1 to 3 days old neonatal mice and placed into separate sterile microcentrifuge tubes containing 500 μL of ice cold Hank's Balanced Salt Solution (HBSS). […]

Take `COc1cccc2c1C(=O)c1c(O)c3c(c(O)c1C2=O)C[C@@](O)(C(=O)CO)C[C@@H]3O[C@H]1C[C@H](N)[C@H](O)[C@H](C)O1` [Dox, doxorubicin]: the “time after drug administration at which impedance started to decrease” value in data set [1] (100 μM Dox introduced at 1-day incubation) was ≤ 4 h. Further, the “decrease of the impedance” value in data set [1] (low drug administration 10 μM) was “no substantial decrease of the impedance”. Further, the “rate of impedance decrease following drug administration, bottom layer” value in data set [2] (bottom scaffold layer) is given as “about 1.6 Ω/hr”. In addition, in data set [2] (middle scaffold layer), the “rate of impedance decrease following drug administration, middle layer” value is “about 5.4 Ω/hr”. Further, the solubility result in data set [3] was “about 50 mg/ml”.
For `NC[C@H](O)c1ccc(O)c(O)c1` [norepinephrine], the “increase of beating rate” value in data set [4] (addition of 100 μL of norepinephrine (bitartrate solution 10 μM) into the medium) was “nearly two-fold”. The “time after NE administration to increase of beating rate” value in data set [4] (addition of 100 μL of norepinephrine into the medium) is ≤ 3 min.
